Measurements reported in ChEMBL document CHEMBL4270495, “Oleanane-, ursane-, and quinone methide friedelane-type triterpenoid derivatives: Recent advances in cancer treatment” (Eur J Med Chem, 2017).

Assays:
[1] = tested on: HepG2; experiment: Cytotoxicity in human HepG2 cells assessed as reduction in cell viability incubated for 48 hrs by MTT assay; assay type: functional, cell-based; conditions: HepG2, 48 h
[2] = tested on: SMMC-7721; experiment: Cytotoxicity in human SMMC7721 cells assessed as reduction in cell viability incubated for 48 hrs by MTT assay; assay type: functional, cell-based; conditions: SMMC-7721, 48 h
[3] = tested on: BGC-823; experiment: Cytotoxicity in human BGC823 cells assessed as reduction in cell viability; assay type: functional, cell-based
[4] = tested on: HeLa; experiment: Cytotoxicity in human HeLa cells assessed as reduction in cell viability; assay type: functional, cell-based
[5] = tested on: HeLa; experiment: Cytotoxicity in human HeLa cells assessed as reduction in cell viability incubated for 72 hrs by MTT assay; assay type: functional, cell-based
[6] = tested on: HT-29; experiment: Cytotoxicity in human HT-29 cells assessed as reduction in cell viability incubated for 72 hrs by MTT assay; assay type: functional, cell-based; conditions: HT-29, 72 h
[7] = tested on: MCF7; experiment: Cytotoxicity in human MCF7 cells assessed as reduction in cell viability incubated for 72 hrs by MTT assay; assay type: functional, cell-based; conditions: MCF7, 72 h
[8] = tested on: SGC-7901; experiment: Cytotoxicity in human SGC7901 cells assessed as reduction in cell viability incubated for 48 hrs by MTT assay; assay type: functional, cell-based; conditions: SGC-7901, 48 h
[9] = tested on: HepG2; experiment: Cytotoxicity in human HepG2 cells assessed as reduction in cell viability incubated for 72 hrs by MTT assay; assay type: functional, cell-based; conditions: HepG2, 72 h
[10] = tested on: B16-F10; experiment: Cytotoxicity in mouse B16F10 cells assessed as reduction in cell viability incubated for 72 hrs by MTT assay; assay type: functional, cell-based; conditions: B16-F10, 72 h
[11] = tested on: MCF7; experiment: Cytotoxicity in human MCF7 cells assessed as reduction in cell viability incubated for 72 hrs by CCK8 assay; assay type: functional, cell-based; conditions: MCF7, 72 h
[12] = tested on: HepG2; experiment: Cytotoxicity in human HepG2 cells assessed as reduction in cell viability incubated for 72 hrs by CCK8 assay; assay type: functional, cell-based; conditions: HepG2, 72 h
[13] = tested on: HeLa; experiment: Cytotoxicity in human HeLa cells assessed as reduction in cell viability incubated for 72 hrs by CCK8 assay; assay type: functional, cell-based
[14] = tested on: SGC-7901; experiment: Cytotoxicity in human SGC7901 cells assessed as reduction in cell viability incubated for 72 hrs by CCK8 assay; assay type: functional, cell-based; conditions: SGC-7901, 72 h
[15] = tested on: A549; experiment: Cytotoxicity in human A549 cells assessed as reduction in cell viability incubated for 72 hrs by CCK8 assay; assay type: functional, cell-based; conditions: A549, 72 h
[16] = tested on: PC-3; experiment: Cytotoxicity in human PC3 cells assessed as reduction in cell viability incubated for 72 hrs by CCK8 assay; assay type: functional, cell-based; conditions: PC-3, 72 h
[17] = tested on: A-375; experiment: Cytotoxicity in human A375 cells assessed as reduction in cell viability incubated for 24 hrs by MTT assay; assay type: functional, cell-based; conditions: A-375, 24 h
[18] = Cytotoxicity in human SPC-A1 cells assessed as reduction in cell viability incubated for 24 hrs by MTT assay; assay type: functional, cell-based; conditions: SPCA1, 24 h
[19] = tested on: NCI-H446; experiment: Cytotoxicity in human NCI-H446 cells assessed as reduction in cell viability incubated for 24 hrs by MTT assay; assay type: functional, cell-based; conditions: NCI-H446, 24 h
[20] = Cytotoxicity in human SPCA2 cells assessed as reduction in cell viability incubated for 48 hrs by MTT assay; assay type: functional, cell-based; conditions: SPCA2, 48 h
[21] = tested on: T-24; experiment: Cytotoxicity in human T24 cells assessed as reduction in cell viability incubated for 48 hrs by MTT assay; assay type: functional, cell-based; conditions: T-24, 48 h
[22] = tested on: A549; experiment: Cytotoxicity in human A549 cells assessed as reduction in cell viability incubated for 48 hrs by MTT assay; assay type: functional, cell-based; conditions: A549, 48 h
[23] = tested on: HUVEC; experiment: Cytotoxicity in HUVEC cells assessed as reduction in cell viability incubated for 48 hrs by MTT assay; assay type: cell-based; conditions: Homo sapiens
[24] = tested on: MDA-MB-231; experiment: Cytotoxicity in human MDA-MB-231 cells assessed as reduction in cell viability incubated for 48 hrs by SRB assay; assay type: functional; conditions: MDA-MB-231, 48 h
[25] = tested on: MCF7; experiment: Cytotoxicity in human MCF7 cells assessed as reduction in cell viability incubated for 48 hrs by SRB assay; assay type: functional, cell-based; conditions: MCF7, 48 h
[26] = tested on: MCF-12A; experiment: Cytotoxicity in human MCF12A cells assessed as reduction in cell viability incubated for 24 hrs by MTT assay; assay type: functional, cell-based
[27] = tested on: MDA-MB-468; experiment: Cytotoxicity in human MDA-MB-468 cells assessed as reduction in cell viability incubated for 24 hrs by MTT assay; assay type: functional, cell-based; conditions: MDA-MB-468, 24 h
[28] = tested on: T47D; experiment: Cytotoxicity in human T47D cells assessed as reduction in cell viability incubated for 24 hrs by MTT assay; assay type: functional, cell-based
[29] = tested on: MCF7; experiment: Cytotoxicity in human MCF7 cells assessed as reduction in cell viability incubated for 24 hrs by MTT assay; assay type: functional, cell-based; conditions: MCF7, 24 h
[30] = tested on: HL60/ADR; experiment: Cytotoxicity in human HL60/ADR cells assessed as reduction in cell viability incubated for 24 hrs by MTT assay; assay type: functional, cell-based
[31] = tested on: HL-60; experiment: Cytotoxicity in human HL60 cells assessed as reduction in cell viability incubated for 24 hrs by MTT assay; assay type: functional, cell-based; conditions: HL-60, 24 h
[32] = tested on: MDA-MB-231; experiment: Cytotoxicity in human MDA-MB-231 cells assessed as reduction in cell viability incubated for 24 hrs by MTT assay; assay type: functional, cell-based; conditions: MDA-MB-231, 24 h

SMILES: COC1=C(Br)C(=O)c2c([nH]c3c2C[C@]2(C)[C@H]4CC=C5[C@@H]6[C@@H](C)[C@H](C)CC[C@]6(C(=O)O)CC[C@@]5(C)[C@]4(C)CC[C@H]2C3(C)C)C1=O
- IC50 [1]: 1600 nM
- IC50 [2]: 1200 nM

SMILES: CC(=O)O[C@H]1CC[C@]2(C)[C@H]3CC=C4[C@@H]5[C@@H](C)[C@H](C)CC[C@]5(C(=O)N5CCOCC5)CC[C@@]4(C)[C@]3(C)CC[C@H]2C1(C)C
- IC50 [3]: > 10 µM
- IC50 [4]: 2200 nM

SMILES: COC(=O)[C@]12CC[C@@H](C)[C@H](C)[C@H]1C1=CC(=O)[C@@H]3[C@@]4(C)C(C#N)=C[C@@](C)(COS(C)(=O)=O)[C@@H]4CC[C@@]3(C)[C@]1(C)CC2
- IC50 [5]: 7.27 µM
- IC50 [6]: 9770 nM
- IC50 [7]: 19.5 µM

SMILES: CC1=C(O)C(=O)C=C2C1=CC=C1[C@@]2(C)CC[C@@]2(C)[C@@H]3C[C@](C)(C(=O)NCC(C)O)CC[C@]3(C)CC[C@]12C (some centres undefined)
- IC50 [8]: 100 nM
- IC50 [2]: 610 nM

SMILES: CCCC(=O)O[C@@H]1C[C@]2(C)[C@H]3CC=C4[C@@H]5CC(C)(C)CC[C@]5(C(=O)NCCCCCCCCCCC(=O)O)CC[C@@]4(C)[C@]3(C)CC[C@H]2C(C)(C)[C@H]1OC(=O)CCC
- IC50 [6]: 1370 nM
- IC50 [9]: 27.6 µM
- IC50 [10]: 5.7 µM

SMILES: COC(=O)C1CCCN1C(=O)[C@]12CC[C@@H](C)[C@H](C)[C@H]1C1=CC[C@@H]3[C@@]4(C)C[C@@H](OC(C)=O)[C@H](OC(C)=O)[C@@](C)(COC(C)=O)[C@@H]4CC[C@@]3(C)[C@]1(C)CC2 (some centres undefined)
- IC50 [11]: 4.5 µM
- IC50 [12]: 900 nM
- IC50 [13]: 4.8 µM
- IC50 [14]: 4.6 µM
- IC50 [15]: 2.4 µM
- IC50 [16]: 9.2 µM

SMILES: CC(=O)OC[C@]1(C)[C@@H]2CC[C@]3(C)[C@H](C(=O)C=C4[C@H]5[C@](C(=O)OCC(=O)N/N=C/c6ccc(Cl)cc6)(CC[C@@H](C)[C@@]5(C)O)CC[C@]43C)[C@@]2(C)CC[C@@H]1OC(C)=O
- IC50 [17]: > 100 µM
- IC50 [18]: > 100 µM
- IC50 [19]: > 100 µM

SMILES: CC(=O)OC[C@]1(C)[C@@H]2CC[C@]3(C)[C@H](C(=O)C=C4[C@H]5[C@](C(=O)OCC(=O)N/N=C/c6ccc(C)cc6)(CC[C@@H](C)[C@@]5(C)O)CC[C@]43C)[C@@]2(C)CC[C@@H]1OC(C)=O
- IC50 [17]: 6.5 µM
- IC50 [18]: 7.4 µM
- IC50 [19]: 15 µM

SMILES: CCCC(=O)OC[C@]1(C)C=C(C=O)[C@@]2(C)[C@H]1CC[C@]1(C)[C@@H]2C(=O)C=C2[C@@H]3[C@@H](C)[C@H](C)CC[C@]3(C(=O)OC)CC[C@]21C
- IC50 [5]: 0.49 µM
- IC50 [6]: 770 nM
- IC50 [7]: 0.88 µM

SMILES: CCCC(=O)O[C@H]1CC[C@]2(C)[C@H]3CC=C4[C@@H]5[C@@H](C)[C@H](C)CC[C@]5(C(=O)N5CCOCC5)CC[C@@]4(C)[C@]3(C)CC[C@H]2C1(C)C
- IC50 [3]: 9.7 µM
- IC50 [4]: > 10000 nM

SMILES: C[C@H]1[C@H](C)CC[C@]2(C(=O)O)CC[C@]3(C)C(=CC[C@@H]4[C@@]5(C)C[C@@H](O)[C@H](O)[C@@](C)(CO)[C@@H]5CC[C@]43C)[C@H]12 [ASIATIC ACID]
- IC50 [11]: 32.8 µM
- IC50 [20]: 39.4 µM
- IC50 [21]: 33.7 µM
- IC50 [22]: 37.8 µM
- IC50 [13]: 4 to 55.1 µM
- IC50 [14]: 36.8 µM
- IC50 [15]: 18.8 µM
- IC50 [23]: > 100 µM
- GI50 [24]: 18.1 µM
- IC50 [16]: 53.6 µM
- GI50 [25]: 19.1 µM

SMILES: CC1(C)CC[C@]2(C(=O)O)CC[C@]3(C)C(=CC[C@@H]4[C@@]5(C)CC[C@H](O)C(C)(C)[C@@H]5CC[C@]43C)[C@@H]2C1 [OLEANOLIC_ACID]
- IC50 [26]: > 50 µM
- IC50 [27]: 38.1 µM
- IC50 [28]: 36.2 µM
- IC50 [29]: 12.7 µM
- IC50 [30]: 28.8 µM
- IC50 [31]: 14.8 µM
- IC50 [32]: > 50 µM
- GI50 [24]: 17.6 µM
- GI50 [25]: 10.3 µM
